Counter-ions that a name gives are not always drawn.
Target: sialidase (Influenza A virus, UniProt P03468)
Test: Influenza virus sialidase inhibition (free sialic acid released from α 2-3 sialyl-lactose, pH 5.2, 37° C., densitometry)
Assay type: biochemical, Influenza virus A/PR/8/34
Conditions: for IC50: α 2-3 sialyl-lactose substrate, pH 5.2, 37° C., 10 minutes

Chain of sialidase (P03468 whole entry): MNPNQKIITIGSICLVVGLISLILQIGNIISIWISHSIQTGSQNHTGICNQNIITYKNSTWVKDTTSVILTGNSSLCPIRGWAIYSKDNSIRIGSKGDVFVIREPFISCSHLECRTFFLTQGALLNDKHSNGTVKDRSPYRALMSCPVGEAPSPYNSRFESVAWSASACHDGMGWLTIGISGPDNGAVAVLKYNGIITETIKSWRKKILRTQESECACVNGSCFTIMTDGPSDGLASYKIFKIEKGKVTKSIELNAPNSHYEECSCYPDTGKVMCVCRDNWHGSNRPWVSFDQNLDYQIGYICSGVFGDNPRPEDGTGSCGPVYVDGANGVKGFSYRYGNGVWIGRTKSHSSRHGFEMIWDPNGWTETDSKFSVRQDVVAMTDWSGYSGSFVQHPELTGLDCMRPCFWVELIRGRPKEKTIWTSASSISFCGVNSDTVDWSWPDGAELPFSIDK

| SMILES | IC50 [µM] | sialidase inhibitory activity |
| --- | --- | --- |
| CC(=O)N[C@H]1[C@H]([C@H](O)[C@H](O)CO)OC(C(=O)O)=C[C@@H]1N [4-Amino-2,3-didehydrosialic acid, 4-amino-2,3-didehydrosialic acid] | 1.5 |  |
| CC(=O)N[C@H]1[C@H]([C@H](F)[C@H](O)CO)OC(C(=O)O)=C[C@@H]1N [5-Acetamide-4-amino-2,6-anhydro-7-fluoro-3,4,5,7-tetradeoxy-D-glycero-D-galacto-non-2-enonic acid Sodium salt] | 0.5 | very potent |
| CC(=O)N[C@H]1[C@H]([C@H](F)[C@H](O)CO)OC(C(=O)O)=C[C@@H]1O [7-Fluoro-2,3-didehydrosialic acid] | 2.9 |  |

Reference: US5948816A, “4-substituted-2,7-dideoxy-7-fluoro-2,3-didehydro-sialic acid compounds” (priority 1996, dated 1999)
